Data from patent publication US20240261267A1, “METHODS FOR TREATING MULTIPLE SCLEROSIS” (Vanda Pharmaceuticals Inc., priority 2021, published 2024).

Tested on: primary mouse OPCs
Assay: differentiation assay, quantitative PCR
Type: cell-based
Procedure: The effects of ponesimod, a selective S1P1 receptor agonist, and A971432, a selective S1P5 receptor agonist, on oligodendrocyte precursor cell (OPC) migration and differentiation were evaluated. Nine concentrations were tested (logarithmic dilutions ranging from 0.3 nM to 3000 nM, n=6 per concentration). Fingolimod phosphate (P-FTY720, 3000 nM, n=6) was included as a positive control, 0.1% DMSO was included (min.one/plate) as a negative control. Primary mouse OPCs were harvested on postnatal day 0 or 1 and mixed glia cultures were maintained for 14 days. Primary OPCs were then purified using the shake-off method, and used for either a migration assay, or a differentiation assay, as detailed below. To harvest primary mouse OPCs, cortices are isolated from mouse pups on postnatal day 0 or 1 and placed in ice-cold Dulbecco's Modified Eagle Medium (DMEM) (Sigma Aldrich, Overijse, BE). The cortices are homogenized and centrifuged for 5 minutes at 300 G. The supernatant is removed, and a papain solution is added for 30 minutes (125 uL DMEM solution per brain containing 20 units/ml papain and 40 μg/ml DNase, at 37 degrees). Digestion is inactivated by adding 9 ml cold DMEM. The solution is then centrifuged for 5 minutes at […]. The supernatant is carefully removed, and the pellet is resuspended in 2-5 ml culture medium (DMEM with 10% fetal calf serum (Biowest, Nuaillé, FR) and 1% pen/strep (Sigma Aldrich, Overijse, BE)). […] Cell suspension is divided over PLL (Sigma Aldrich, Overijse, BE)-coated flasks (2 brains per flask) and DMEM is added to a final volume of 10 ml. DMEM is replaced on day 4, 7, and 11. On day 7 and 11, insulin (Sigma Aldrich, Overijse, BE) is added to the medium (5μg/ml). On day 14, OPCs are separated from astrocytes by the shake-off method: flasks are placed on a shaker for 45 minutes at 75 rpm (37 degrees). The medium is then aspirated and discarded, and 10 ml fresh culture medium is added. Flasks are then returned to the shaker for 16-18 hours shaking at 280 rpm. Next, the medium is isolated, and this cell suspension is placed in a plastic petri dish and incubated for 25 minutes. The medium, which contains the OPCs, is then collected and centrifuged for 5 minutes at 300 G. Cells are then resuspended in SATO differentiation medium containing 2% horse serum, 2% B-27, 50 U/ml P/S, 2.4 μl/ml transferrin, 1.04 μl/ml L-thyroxine, 1 μl/ml putrescin, 1 μl/ml progesterone, 1 μl/ml TIT, 0.74 μl/ml sodium selenite and 0.5 μl/ml insulin (all from Sigma-Aldrich, Overijse, BE). […] After shake-off, cells are reset for their differentiation status: one hour after plating, cells are treated with platelet-derived growth factor (PDGF, 10 ng/ml, Peprotech EC Ltd, London, UK) and fibroblast growth factor (fgf, 10 ng/ml, Peprotech EC Ltd, London, UK). Twenty-four hours after plating, cells are treated again with fgf (10 ng/ml). 250,000 cells are plated onto glass coverslips in 24-well plates. Cells are treated with test compound or DMSO on day 1 (twenty-four hours after fgf treatment) and 3, and lysated on day 4. Total RNA was isolated from primary OPCs, using the RNeasy mini kit (Qiagen, Venlo, the Netherlands), according to the manufacturer's instructions. RNA concentration and quality is analyzed with a Nanodrop spectrophotometer (Isogen Life Science, Leiden, The Netherlands). RNA is reverse-transcribed using the qScript cDNA Supermix kit (Quanta, Leuven, Belgium). qPCR is performed to analyze gene expression, using the Applied Biosystems QuantStudio 3 Real-Time PCR System (Life Technologies, Gent, Belgium). The reaction mixture consists of SYBR Green master mix (Life Technologies, Carlsbad, USA), 10 μM forward and reverse primers (Integrated DNA Technologies, Leuven, Belgium), nuclease-free water and cDNA template (12.5 ng), up to a total reaction volume of 10 μl. […] All data was normalised against plate-matched negative controls.

For CCC/N=C1\S/C(=C\c2ccc(OC[C@H](O)CO)c(Cl)c2)C(=O)N1c1ccccc1C [ponesimod, (R)-5-[3-chloro-4-(2,3-dihydroxy-propoxy)-benz[Z]ylidene]-2-([Z]-propylimino)-3-o-tolyl-thiazolidin-4-one], the “changes at the gene expression level” value (all concentrations tested, normalised to negative controls) was “No significant changes”.
O=C(O)C1CN(Cc2ccc(OCc3ccc(Cl)c(Cl)c3)cc2)C1 [A97] was tested, and the MOG expression (3 nM) was “significant decrease”, the Mag gene expression (3 nM) was “significant decrease” and the Mbp expression (3 nM) was “decrease”. For the same molecule, the Mag gene expression (10 nM) was “significant decrease”, the Mbp expression (10 nM) was “decrease” and the Ng2 gene expression (10 nM) was “significant decrease”. For the same molecule, the PLP expression (10 nM) was “significant decrease”, the Mag gene expression (30 nM) was “significant decrease” and the Mobp expression (30 nM) was “significant decrease”. For the same molecule, the Ng2 gene expression (30 nM) was “significant decrease”, the Mobp expression (100 nM) was “significant decrease” and the MOG expression (300 nM) was “significant decrease”. The PLP expression (300 nM) was “significant decrease”, the Mag gene expression (1000 nM) was “significant decrease” and the Mbp expression (1000 nM) was “decrease”. For the same molecule, the Mobp expression (1000 nM) was “significant decrease”, the Ng2 gene expression (1000 nM) was “significant decrease” and the PLP expression (1000 nM) was “significant decrease”. The “expression of Ng2, Plp, Mbp, Mobp, Mog, and Mag” value (concentration series) was “significant concentration-dependent decreases”.
